Experimental data: patent US6495591B1, “Fungal efflux pump inhibitors” (Essential Therapeutics, Inc., priority 1997, dated 2002)
Converted amounts (≈) assume the structure as drawn.

Assays:
Assay in all cases: microbe, parasite or virus in culture
Assay type in all cases: cell-based
[1] = system: S. cerevisiae YEM-37 (CDR2 introduced)
[2] = system: C. albicans YEM-15 (CDR1 and CDR2 overexpressor)
[3] = system: S. cerevisiae YEM-38 (FLU1 introduced)
[4] = system: S. cerevisiae YEM-40 (CgCDR, MF, introduced)
[5] = system: C. albicans YEM-13 (BEN overexpressor)
[6] = system: S. cerevisiae YEM-2 (BEN introduced); conditions: YEM-2, BEN; milbemycin β1 […]
[7] = system: S. cerevisiae YEM-1 (CDR1 introduced); conditions: YEM-1, CDR1; milbemycin β1 […]
[8] = system: C. albicans YEM-5 (CDR1 and CDR2 overexpressor)
[9] = system: C. albicans YEM-11 (BEN overexpressor)
[10] = system: S. cerevisiae YEM-39 (CgCDR introduced)
[11] = system: C. glabrata YEM-19 (CgCDR overexpressor)
[12] = system: C. albicans YEM-15 (CDR1 & CDR2 overexpressor)
[13] = system: S. cerevisiae YEM-3 (no efflux pump introduced); conditions: Saccharomyces cerevisiae, read-out: MIC Flu alone
[14] = Saccharomyces cerevisiae, read-out: MIC Flu alone
[15] = Candida albicans, read-out: MIC Flu alone

CO[C@H]1C[C@@]2(O)/C(CO)=C/C=C/[C@H](C)C/C(C)=C/C[C@@H]3C[C@@H](C[C@]4(CC[C@H](C)[C@@H](C)O4)O3)OC(=O)[C@@H]2C=C1C [Compound 6, Milbemycin β1]
MIC of fluconazole, Flu + Mb ([…]) ([1]; YEM-37, CDR2, milbemycin β1 […]): 0.25 µg/mL | MIC of fluconazole, Flu + Mb (2.5 μg/ml) ([2]; YEM-15, milbemycin β1 2.5 μg/ml): 1 µg/mL | MIC of fluconazole, Flu + Mb ([…]) ([3]; YEM-38, FLU1, milbemycin β1 […]): 4 µg/mL | MIC of fluconazole, Flu + Mb ([…]) ([4]; YEM-40, CgCDR (MF), milbemycin β1 […]): 16 µg/mL | MIC of fluconazole, Flu + Mb (2.5 μg/ml) ([5]; YEM-13, milbemycin β1 2.5 μg/ml): 32 µg/mL | MIC of fluconazole, Flu + Mb ([…]) [6]: 128 µg/mL | MIC of fluconazole, Flu + Mb ([…]) [7]: 0.25 µg/mL | MIC of fluconazole, Flu + Mb (2.5 μg/ml) ([8]; YEM-5, milbemycin β1 2.5 μg/ml): 8 µg/mL | MIC of fluconazole, Flu + Mb (2.5 μg/ml) ([9]; YEM-11, milbemycin β1 2.5 μg/ml): 32 µg/mL | MIC of fluconazole, Flu + Mb ([…]) ([10]; YEM-39, CgCDR, milbemycin β1 […]): 1 µg/mL

Milbemycin oxime [Compound 2]
MIC of fluconazole, Flu + McOxm (2.5 μg/ml) [11]: 128 µg/mL | MIC of fluconazole, Flu + McOxm (2.5 μg/ml) [12]: 0.25 µg/mL

OC(Cn1cncn1)(Cn1cncn1)c1ccc(F)cc1F [Fluconazole, fluconazole, reference compound]
MIC [1, 14]: 2 µg/mL (≈ 6.53 µM) | MIC [2, 15]: 128 µg/mL (≈ 418 µM) | MIC ([11]; Nakaseomyces glabratus, read-out: MIC Flu alone): > 128 µg/mL | MIC [3, 14]: 4 µg/mL (≈ 13.1 µM) | MIC [4, 14]: 16 µg/mL (≈ 52.2 µM) | MIC [5, 15]: 32 µg/mL (≈ 104 µM) | MIC [13]: 0.25 µg/mL (≈ 0.816 µM) | MIC [12, 15]: 128 µg/mL (≈ 418 µM) | MIC [8, 15]: > 128 µg/mL | MIC [9, 15]: 32 µg/mL (≈ 104 µM) | MIC [10, 14]: 32 µg/mL (≈ 104 µM)
